Experiments:
[1] = tested on: Plodia interpunctella larvae (0.6 mg penultimate instar to mid-last instar); test: Bioassay chamber choice test of larval attraction, older larvae (early penultimate, newly molted last and mid-last instar); type: in vivo
Text: (§1) To isolate the attractant, the inventors bioassayed multiple materials that potentially comprised effective attractants. The bioassay chamber 10 was comprised of a Lincoln Wear-Ever (Fort Wayne, Ind.) baking pan (No. 9002) having the dimensions of 65 cm long, 45 cm wide and 2.5 cm high. A similarly sized Carb-x plastic top 12 (Rubbermaid Commercial Products Inc., Winchester, Va.) was modified for this application. (Note that FIG. 1 is a (top) plan view so that only the Carb-x plastic top 12 of the bioassay chamber is shown.)
The rows of three holes were ˜8 cm from the outer edge at the ends and ˜10 cm from the outer edge on the two sides, which spaced the three holes ˜12.5 cm apart, center to center. A 3.0 cm diameter hole 16 was drilled in the center of the top 12 to accept a bulkhead fitting 18 (# 16422, United States Plastic Corp., Lima, Ohio) complete with a right angle connection and a serrated vacuum hose 20. During the bioassay process, air was drawn into the chamber 10 through the six air inlet holes 14 and removed from the chamber 10 through the fitting 18 and vacuum hose 20 in the direction of the arrow 22.
Before each bioassay, the chambers 10 were washed with a dilute solution of Micro-90 detergent (International Products Corp, Burlington, N.J.), rinsed 3 times with tap water, 1 time with distilled water, 1 time with MeOH and air dried. Test samples were placed in flat polypropylene weigh boats. An individual sample was positioned at each end of the chamber 10 under the middle air inlets.
The six air inlet holes 14 were fitted with syringe ports (Part # MTL230-6, Value Plastics, Inc., Fort Collins, Colo.) and six 10 cc syringes 24 filled with activated charcoal were affixed. Low-density foam weather strip (6.3 mm thick×12.7 mm wide, not shown in FIG. 1) was attached along the four edges of the top 12 to form an airtight seal when placed on the bottom pan and tightened together with four Sparco Binder Clips, # 87010 (2″ wide, 1″ capacity) 26. A vacuum means (not shown) was attached to the vacuum hose 20 was adjusted to give an exit flow of ˜53 cc/min or one chamber volume (˜2.41) exchange every 45 min during the bioassay.
In addition to neonates, three other age groups of larvae were selected from the standardized cultures for bioassay to determine if they were attracted to the wheat grain and its components. These groups included newly molted penultimate instar (0.6±0.1 mg), newly molted last instar (3.2±0.2 mg) and mid-last instar (7.8±0.8 mg) (see Silhacek and Miller, 1972). In these assays, 10 larvae of the specified age, stage and weight range were transferred to the 16 mm sample cup at the beginning of the scotophase and immediately placed at the release point in the equilibrated bioassay chamber. The cover was secured to the chamber bottom and the larvae were given three hours to select the sample of choice and then the larvae on each sample were counted.
In the first set of tests, the relative attractiveness of the three major, commercially available kernel tissue fractions of wheat were assessed. The tissues were crude bran (Flint River Mills, Bainbridge, Ga.), Kretschmer's toasted wheat germ (Quaker Oats Co., Chicago, Ill.) and endosperm (organically grown, unbleached, unenriched all-purpose flour, Wards Super Market, Gainesville, Fla.).
The attractiveness of whole kernel wheat volatiles was examined by suspending a packet of whole wheat in the air stream entering the bioassay chamber over a sample of NASE. […]

[2] = tested on: Plodia interpunctella neonatal larvae; test: Bioassay chamber choice test of larval attraction, neonatal larvae; type: in vivo; conditions: serially diluted, bioassayed over the range of 16 pg to 500 pg on 3MM pad; FIGS. 7 and 8
Text: as §1
The rows of three holes were ˜8 cm from the outer edge at the ends and ˜10 cm from the outer edge on the two sides, which spaced the three holes ˜12.5 cm apart, center to center. […]
Plodia larvae used in this study were reared on a standardized Plodia diet (Silhacek and Miller, 1972) at 30° C., 70% r.h. and a 16L:8D photoperiod as described previously (Silhacek et al, 2003) using eggs collected over a 1 h interval during the 2 h period preceding the scotophase. […] The samples were then removed, mixed with Plodia diet and the larvae counted after two days of additional growth.
In the first set of tests, the relative attractiveness of the three major, commercially available kernel tissue fractions of wheat were assessed. […]

## CCCCCc1ccco1 [2-pentyl furan]
[1]; 31 pg on 3MM scintillation pad, three older age groups
  attraction of older larvae at 31 pg: Moderate but not significant attraction
[1]; 250-500 pg, some larvae captured in non-attractive NASE sample
  attraction of older larvae at 250-500 pg: Strong attraction
[1]; all larval stages of Plodia
  attraction of all larval stages when bioassayed: attracted to picogram quantities
[1]; three older age groups, amount on 3MM pad
  amount range of peak attraction of older larvae: 62.5 to 125 pg
[1]; through the middle (7.0-8.5 mg) of the final larval instar
  larval attraction by stage of development: strong
[2]
  attractancy to neonates: attractive at all levels tested between 32 and 500 pg

## CCCCCC=O [Hexanal, reference compound]
[2]
  attractancy to neonates: not attractive

From patent publication US8088366B2, “Attractant for Indian meal moth larve” (The United States of America, as represented by the …, priority 2009, dated 2012)
